From patent publication US20070128217A1 (priority 2003, published 2007)

Legend:
[1] = test system: rabbit serum obtained by immunizing a rabbit with the SARS-CoV strain Frankfurt 1; assay type: binding; parameters: Binding of a rabbit serum to linear peptides / Binding of a rabbit serum to looped peptides / Rabbit serum linear peptides / Rabbit serum looped peptides / Binding of a rabbit serum to linear peptides of protein N of SARS-CoV Urbani (Rabbit serum linear peptides) / Binding of a rabbit serum to looped/cyclic peptides of protein N of SARS-CoV Urbani (Rabbit serum looped peptides): unit not given here
[2] = test system: control sera (pooled serum of ten healthy LUMC hospital workers; commercial negative donor pooled serum from the Dutch bloodbank); assay type: binding, human; parameters: Binding of Control serum LUMC to linear peptides / Binding of Control serum Blood-bank to linear peptides / Binding of Control serum LUMC to looped peptides / Binding of Control Serum Blood-Bank to Looped peptides / Binding of Control serum LUMC to linear peptides of the protein M of SARS-CoV Urbani / Binding of Control serum Blood-bank to linear peptides of the protein M of SARS-CoV Urbani / Binding of Control serum LUMC to looped peptides of the protein M of SARS-CoV Urbani / Binding of Control Serum Blood-Bank to Looped peptides of the protein M of SARS-CoV Urbani: unit not given here
[3] = test system: antibodies in sera from SARS patients (sera 1a, 1b, 2, 6, 37, 62, London, SARS-yellow, SARS-green); assay type: binding, human; parameters: Binding of serum 6 to linear peptides of protein X1 of SARS-CoV Urbani / Binding of serum 37 to linear peptides of protein X1 of SARS-CoV Urbani / Binding of serum 6 to looped/cyclic peptide (PEPSCAN-ELISA) / Binding of serum 37 to looped/cyclic peptide (PEPSCAN-ELISA) / Binding of serum 37 to looped/cyclic peptides of protein X1 of SARS-CoV Urbani / Binding of serum 6 to linear peptides of protein X2 / Binding of serum 37 to linear peptides of protein X2 / Binding of serum 37 to looped/cyclic peptides of protein X2 of SARS-CoV Urbani / Binding of serum 6 to linear peptides of protein M of SARS-CoV Urbani / Binding of serum 37 to linear peptides of protein M of SARS-CoV Urbani / Binding of serum 6 to looped/cyclic peptides of protein M of SARS-CoV Urbani / Binding of serum 37 to looped/cyclic peptides of protein M of SARS-CoV Urbani / Binding of serum 6 to linear peptides of protein X3 of SARS-CoV Urbani / Binding of serum 37 to linear peptides of protein X3 of SARS-CoV Urbani / Binding of serum 37 to looped/cyclic peptides of protein X3 of SARS-CoV Urbani / Binding of serum 6 to linear peptides of protein X4 of SARS-CoV Urbani / Binding of serum 37 to linear peptides of protein X4 of SARS-CoV Urbani / Binding of serum 37 to looped/cyclic peptides of protein X4 of SARS-CoV Urbani / Binding of serum 6 to linear peptides of protein X5 of SARS-CoV Urbani / Binding of serum 37 to linear peptides of protein X5 of SARS-CoV Urbani / Binding of serum 37 to looped/cyclic peptides of protein X5 of SARS-CoV Urbani / Binding of serum 6 to linear peptides of protein N of SARS-CoV Urbani / Binding of serum 37 to linear peptides of protein N of SARS-CoV Urbani / Binding of serum 6 to linear peptide (PEPSCAN-ELISA) / Binding of serum 1a to looped/cyclic peptides of protein N of SARS-CoV Urbani / Binding of serum 1b to looped/cyclic peptides of protein N of SARS-CoV Urbani / Binding of serum 2 to looped/cyclic peptides of protein N of SARS-CoV Urbani / Binding of serum 6 to looped/cyclic peptides of protein N of SARS-CoV Urbani / Binding of serum 37 to looped/cyclic peptides of protein N of SARS-CoV Urbani / Binding of serum 62 to looped/cyclic peptides of protein N of SARS-CoV Urbani / Binding of serum London to looped/cyclic peptides of protein N of SARS-CoV Urbani / Binding of serum SARS-green to looped/cyclic peptides of protein N of SARS-CoV Urbani: unit not given here

Sequence: RARSVSPKLFIRQEE
- Recognition of the peptide by the rabbit serum [1]: recognized
- Binding of Control Serum Blood-Bank to Looped peptides [2]: 0.7
- Binding of Control serum Blood-bank to linear peptides [2]: 0.6
- Binding of Control serum LUMC to linear peptides [2]: 0.5
- Binding of Control serum LUMC to looped peptides [2]: 0.8
- Binding of serum 1a to linear peptides of protein X4 of SARS-CoV Urbani [3]: 0.8
- Binding of serum 1a to looped/cyclic peptides of protein X4 of SARS-CoV Urbani [3]: 0.8
- Binding of serum 1b to linear peptides of protein X4 of SARS-CoV Urbani [3]: 0.6
- Binding of serum 1b to looped/cyclic peptides of protein X4 of SARS-CoV Urbani [3]: 0.7
- Binding of serum 2 to linear peptides of protein X4 of SARS-CoV Urbani [3]: 0.4
- Binding of serum 2 to looped/cyclic peptides of protein X4 of SARS-CoV Urbani [3]: 0.6
- Binding of serum 6 to linear peptides of protein X4 of SARS-CoV Urbani [3]: 0.6
- Binding of serum 6 to looped/cyclic peptides of protein X4 of SARS-CoV Urbani [3]: 0.8
- Binding of serum 37 to linear peptides of protein X4 of SARS-CoV Urbani [3]: 0.7
- Binding of serum 37 to looped/cyclic peptides of protein X4 of SARS-CoV Urbani [3]: 0.7
- Binding of serum 62 to linear peptides of protein X4 of SARS-CoV Urbani [3]: 0.8
- Binding of serum 62 to looped/cyclic peptides of protein X4 of SARS-CoV Urbani [3]: 0.7
- Binding of serum London to linear peptides of protein X4 of SARS-CoV Urbani [3]: 0.8
- Binding of serum London to looped/cyclic peptides of protein X4 of SARS-CoV Urbani [3]: 0.5
- Binding of serum SARS-green to linear peptides of protein X4 of SARS-CoV Urbani [3]: 0.6
- Binding of serum SARS-green to looped/cyclic peptides of protein X4 of SARS-CoV Urbani [3]: 0.7
- Binding of serum SARS-yellow to linear peptides of protein X4 of SARS-CoV Urbani [3]: 0.1
- Binding of serum SARS-yellow to looped/cyclic peptides of protein X4 of SARS-CoV Urbani [3]: 0.7

Sequence: RCDIKDLPKEITVAT
- Rabbit serum linear peptides [1]: 0.0
- Rabbit serum looped peptides [1]: 0.3
- Binding of Control Serum Blood-Bank to Looped peptides of the protein M of SARS-CoV Urbani [2]: 0.6
- Binding of Control serum Blood-bank to linear peptides of the protein M of SARS-CoV Urbani [2]: 0.7
- Binding of Control serum LUMC to linear peptides of the protein M of SARS-CoV Urbani [2]: 0.5
- Binding of Control serum LUMC to looped peptides of the protein M of SARS-CoV Urbani [2]: 0.7
- Binding of serum 1a to linear peptides of protein M of SARS-CoV Urbani [3]: 0.7
- Binding of serum 1a to looped/cyclic peptides of protein M of SARS-CoV Urbani [3]: 0.6
- Binding of serum 1b to linear peptides of protein M of SARS-CoV Urbani [3]: 0.5
- Binding of serum 1b to looped/cyclic peptides of protein M of SARS-CoV Urbani [3]: 0.4
- Binding of serum 2 to linear peptides of protein M of SARS-CoV Urbani [3]: 0.5
- Binding of serum 2 to looped/cyclic peptides of protein M of SARS-CoV Urbani [3]: 0.6
- Binding of serum 6 to linear peptides of protein M of SARS-CoV Urbani [3]: 0.3
- Binding of serum 6 to looped/cyclic peptides of protein M of SARS-CoV Urbani [3]: 0.6
- Binding of serum 37 to linear peptides of protein M of SARS-CoV Urbani [3]: 0.5
- Binding of serum 37 to looped/cyclic peptides of protein M of SARS-CoV Urbani [3]: 0.6
- Binding of serum 62 to linear peptides of protein M of SARS-CoV Urbani [3]: 0.6
- Binding of serum 62 to looped/cyclic peptides of protein M of SARS-CoV Urbani [3]: 0.6
- Binding of serum London to linear peptides of protein M of SARS-CoV Urbani [3]: 0.3
- Binding of serum London to looped/cyclic peptides of protein M of SARS-CoV Urbani [3]: 0.2
- Binding of serum SARS-green to linear peptides of protein M of SARS-CoV Urbani [3]: 0.5
- Binding of serum SARS-green to looped/cyclic peptides of protein M of SARS-CoV Urbani [3]: 0.4
- Binding of serum SARS-yellow to linear peptides of protein M of SARS-CoV Urbani [3]: 0.2
- Binding of serum SARS-yellow to looped/cyclic peptides of protein M of SARS-CoV Urbani [3]: 0.7

Sequence: RGNTYSTAWLCALGK
- Rabbit serum linear peptides [1]: 1.3
- Rabbit serum looped peptides [1]: 0.8
- Binding of Control Serum Blood-Bank to Looped peptides [2]: 0.4
- Binding of Control serum Blood-bank to linear peptides [2]: 1.0
- Binding of Control serum LUMC to linear peptides [2]: 0.6
- Binding of Control serum LUMC to looped peptides [2]: 0.6
- Binding of serum 1a to linear peptides of protein X5 of SARS-CoV Urbani [3]: 0.9
- Binding of serum 1a to looped/cyclic peptides of protein X5 of SARS-CoV Urbani [3]: 0.4
- Binding of serum 1b to linear peptides of protein X5 of SARS-CoV Urbani [3]: 0.6
- Binding of serum 1b to looped/cyclic peptides of protein X5 of SARS-CoV Urbani [3]: 0.3
- Binding of serum 2 to linear peptides of protein X5 of SARS-CoV Urbani [3]: 0.9
- Binding of serum 2 to looped/cyclic peptides of protein X5 of SARS-CoV Urbani [3]: 0.6
- Binding of serum 6 to linear peptides of protein X5 of SARS-CoV Urbani [3]: 0.7
- Binding of serum 6 to looped/cyclic peptides of protein X5 of SARS-CoV Urbani [3]: 0.9
- Binding of serum 37 to linear peptides of protein X5 of SARS-CoV Urbani [3]: 0.8
- Binding of serum 37 to looped/cyclic peptides of protein X5 of SARS-CoV Urbani [3]: 0.5
- Binding of serum 62 to linear peptides of protein X5 of SARS-CoV Urbani [3]: 0.8
- Binding of serum 62 to looped/cyclic peptides of protein X5 of SARS-CoV Urbani [3]: 0.7
- Binding of serum London to linear peptides of protein X5 of SARS-CoV Urbani [3]: 0.8
- Binding of serum London to looped/cyclic peptides of protein X5 of SARS-CoV Urbani [3]: 1.4
- Binding of serum SARS-green to linear peptides of protein X5 of SARS-CoV Urbani [3]: 0.6
- Binding of serum SARS-green to looped/cyclic peptides of protein X5 of SARS-CoV Urbani [3]: 0.3
- Binding of serum SARS-yellow to linear peptides of protein X5 of SARS-CoV Urbani [3]: 0.3
- Binding of serum SARS-yellow to looped/cyclic peptides of protein X5 of SARS-CoV Urbani [3]: 0.5
